For one assay, the system named is Id-1. Description: Immunohistochemical detection of Id-1 in lung metastatic foci. In kind it is in vivo, mouse. On the procedure: (§1) CBD down-regulates Id-1 expression and breast cancer cell proliferation in lung metastatic foci. […] Lung tissue from mice treated with vehicle or CBD (1 mg/kg) were evaluated for Id-1 expression and Ki67, a marker of cellular proliferation (FIG. 5, panel A).
(§2) Immunohistochemical detection of Id-1 and Ki67 was performed in lung tissues of vehicle and CBD treated mice. Nuclei were stained with hematoxylin. […] The intensity of the immunohistochemical (IHC) detection of Id-1 was then graded from 0 to 4.

The next assay concerns Ki67. As to the kind of experiment: Immunohistochemical detection of Ki67 in lung metastatic foci. It is filed as in vivo, mouse. The conditions noted are these: 1 mg/kg. On the procedure:
as §1, §2

The test system of assay [1] is U251 GBM cells. Description: Intracranial U251 GBM xenograft in nu/nu mice. It is filed as in vivo, mouse. The protocol:
(§3) Effects of CBD on GBM cell invasion in In Vivo Studies. To determine whether CBD could inhibit GBM cell invasion through intact brain tissue, an organotypic brain slice assay was utilized. GFP-labeled U251 cells were treated for two days in culture with vehicle or CBD. On the third day, the cells were harvested and transferred to the top of a 0.5 mm coronal rat brain slice obtain from a postnatal day 3 rat pup. A porous cell culture insert containing the slice was suspended for three days in a well containing conditioned media with either vehicle or 1 μM CBD. […] GBM tumors were generated in nu/nu mice by intracranial injection of U251 GBM cells. […] CBD produced a robust reduction of GBM progression, decreasing the tumor area by 95% (FIG. 14, panels B and C). […] This occurred concomitantly with a decrease in tumor cell proliferation (the number of Ki67-positive nuclei was decreased by 87%±9 (p<0.0001, Student's t-test)) (FIG. 14, panel D).

Assay [2] relates to U251 cells. Description: Organotypic brain slice invasion assay. In kind it is cell-based, human. The conditions noted are these: 1 μM. On the procedure: as §3
In another assay the test system is 4T1 cells. As to the kind of experiment: In-vivo primary tumor proliferation (4T1 mammary fat pad, flank of Nude mice). The conditions noted are these: daily treatment from one week post injection. Also on record: species or system mouse. The protocol: In-vivo studies of breast and brain tumor formation with CBD. The compounds of the disclosure were effective in inhibiting tumor formation in an in-vivo model. Breast cancer 4T1 cells were subcutaneously injected into the mammary fat pad of BALBc mice (FIG. 8, Panel A), or into the flank of Nude mice (FIG. 8, Panel B). After one week post injection, the mice were treated daily (systemic in A, and peritumoral in B) with CBD […]. Primary tumor volume was then calculated by measuring the perpendicular largest diameters of the tumor with a caliper and using the formula (L×W^2/2).

Assay [3] has as its system SAS, HSC-2, ACCM and ACC2 cells. As to the kind of experiment: Head and neck and salivary gland cancer cells: Id-1 expression, viability, invasiveness. In kind it is cell-based. The protocol:
(§4) Measuring the effect of CBD on the aggressiveness of head and neck as well as salivary gland cancer cells. Head and neck cancer cell lines (SAS and HSC-2 in the upper panels) and salivary gland cancer cell lines (ACCM and ACC2 in the lower panels) were treated with CBD.

The test system of another assay is ACCM cells. As to the kind of experiment: Lung metastasis after injection of ACCM cells. In kind it is in vivo, mouse. The conditions noted are these: daily treatment. On the procedure: as §4
Assay [4] relates to U251 GBM cells. As to the kind of experiment: Viability assay, combination with Temozolomide. It is filed as cell-based, human. The protocol: Viability Assays using drug combinations and statistical analysis: Multiple viability assays in a 96 well format were run for each compound and the average percent inhibition of cell viability was calculated and transformed to fraction affected (Fa) i.e., percent inhibitory effect. Additional CI values and a dose reduction index (DRI) were also calculated using Compusyn software. After determining the (IC50/Fa0.5) values of the drugs individually, components were then combined at the following concentration ranges: controls, 0.125×IC50, 0.25×IC50, 0.5×IC50 and a combination index was calculated where CI<1, =1, and >1 indicate synergism, additive effect, and antagonism, respectively.
Cell viability studies with U251 GBM cells using CBD in combination with Temozolomide. […] The concentration response curves were first generated for temozolomide, CBD alone, and a combination of CBD and temozolomide (FIG. 16, panel A). The inhibitory values from the concentration response curves were then used to calculate combination index (CI) values at multiple combination ratios (FIG. 16, panel B). From which, the data was also used to calculate (i) IC50 values, the slope of the curve (m) and a goodness of fit value (r).

In assay [5] the test system is U251 cells. Description: Cell cycle analysis (PI staining, FACS). It is filed as cell-based, human. The conditions noted are these: THC 1.7 μM, CBD 0.4 μM. On the procedure: Cell cycle analysis: U251 cells were grown in Petri dishes (100 mm×15 mm) and received drug treatments for 2 days. On the third day, the cells were harvested and centrifuged at 1200 rpm for 5 minutes. The pellet was washed 1× with PBS+1% BSA, and centrifuged again. The pellet was re-suspended in 0.5 ml of 2% paraformaldehyde (diluted with PBS) and left to fix overnight at room temperature. The next day the cells were pelleted and re-suspended in 0.5 ml 0.3% Triton in PBS and incubated for 5 minutes at room temperature. The cells were then washed 2 times with PBS+1% BSA. The cells were finally suspended in PBS (0.1% BSA) with 10 ug/ml Propidium Iodide and 100 μg/ml RNAse. The cells were incubated for 30 minutes at room temperature before being stored at 4° C. Cell cycle was measured using a FACS Calibur using Cell Quest Pro and Modfit software.
Apoptosis Studies using U251 cells with Δ^9-THC and/or CBD. […] Therefore, U251 cells were treated with THC and CBD alone or with the combination of the two, and cell cycle was analyzed using cell flow cytometery (FIG. 20). […] Additionally, there was an increase in the population of cells in the G2/M phase. These changes in G1, S and G2/M phase are hallmarks of cell cycle arrest.
Albeit, the magnitude of these effects was reduced compared to those observed with the combination treatment.

The test system of another assay is caspase 3, 7, 9 and PARP. As to the kind of experiment: Western analysis of caspases and PARP in U251 cells. It is filed as cell-based, human. The conditions noted are these: THC 1.7 μM, CBD 0.4 μM, three days. From the text: Caspases play a primary role in the regulation of programmed cell death.
In a further assay the test system is U87 cells. As to the kind of experiment: MTT cell proliferation assay. The conditions noted are these: Homo sapiens, U-87 MG, 72 h, read-out: CBD IC50, U87. A general note: Tetrazolium dyes change colour on reduction, which living cells bring about.
In the next assay the test system is pERK, JNK, p38 MAPK. Description: Western analysis of MAPK activity in U251 cells.
For the next assay, the target named is CB1 receptors (Homo sapiens, UniProt P21554). As to the kind of experiment: Affinity for CB1 receptors. It is filed as binding.
Sequence of CB1 receptors (P21554 whole entry): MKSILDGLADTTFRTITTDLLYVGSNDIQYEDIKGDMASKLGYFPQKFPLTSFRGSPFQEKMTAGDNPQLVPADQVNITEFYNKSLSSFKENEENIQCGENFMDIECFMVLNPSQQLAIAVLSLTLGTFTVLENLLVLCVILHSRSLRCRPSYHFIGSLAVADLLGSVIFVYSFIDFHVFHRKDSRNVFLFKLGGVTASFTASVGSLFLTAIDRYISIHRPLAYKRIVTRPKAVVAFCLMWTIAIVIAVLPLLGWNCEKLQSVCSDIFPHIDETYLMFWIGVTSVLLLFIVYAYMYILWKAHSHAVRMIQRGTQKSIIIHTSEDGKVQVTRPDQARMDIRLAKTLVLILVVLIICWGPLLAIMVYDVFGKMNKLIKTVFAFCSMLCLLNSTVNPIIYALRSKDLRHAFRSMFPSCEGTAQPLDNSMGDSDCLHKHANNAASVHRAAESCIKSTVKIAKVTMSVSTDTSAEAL
Another assay relates to Id-2. As to the kind of experiment: Western analysis of Id-2 expression in breast cancer cells. In kind it is cell-based, human. The conditions noted are these: 1.0 μM, three days.

The values below come from patent US9809521B2, “Cannabidinoid derivatives” (priority 2011, dated 2017).

The term IC50 denotes the concentration that gives 50% inhibition.

With `C=C(C)[C@@H]1CCC(C)=C[C@H]1c1c(O)cc(CCCCC)cc1O` [CBD, cannabidiol], the “lung foci strongly positive for Id-1” value in the assay on Id-1 (1 mg/kg) is given as 5.6%. The “intensity of IHC detection of Id-1, grade 0 to 4, average” value in the assay on Id-1 (mouse, in vivo) is reported as “around 1”. Moreover, in the assay with Ki67, the “Ki67 in metastatic foci” value was “significant down-regulation of Ki67”. Further, the “mice in which no tumor cells were observed” value in the assay on U251 GBM cells [1] (15 mg/kg) is given as “one of the five mice”. For the same molecule, the “decrease of tumor area” value in the assay with U251 GBM cells [1] (15 mg/kg i.p. 5 days a week for 28 days) is given as 95%. Besides, the “decrease in number of Ki67-positive nuclei” value in the assay on U251 GBM cells [1] (15 mg/kg, tumors responding to treatment) is reported as 87%±9. Moreover, the “Id-1 expression in tumors” value in the assay with U251 GBM cells [1] (tumors responding to treatment) was “significant down-regulation of Id-1 expression”. Besides, in the assay with U251 cells [2], the “invasion of U251 cells through the organotypic brain slice” value is given as “highly effective at inhibiting invasion”. For the same molecule, the “tumor proliferation in-vivo (primary tumor volume)” value with 4T1 cells is on record as “potent inhibitor of tumor proliferation”. In addition, in [3], the “ACCM tumor cell viability and invasiveness” value was “significant effect on ACCM tumor cell viability and invasiveness”; the “Id-1 gene expression in SAS, HSC-2, ACCM, ACC2” value was “downregulated in all cell lines”; the “SAS tumor cell viability and invasiveness” value is “significant effect on SAS tumor cell viability and invasiveness”. In the assay on ACCM cells, the “number of lung metastatic foci” value is “significantly reduced upon CBD treatment”. For the same molecule, the “interaction with Temozolomide (combination index)” value in the assay on U251 GBM cells [4] is listed as “acts synergistically with Temozolomide”. In addition, in the assay with U251 cells [5], the cell cycle phases entry is “increases in the population of cells in G1 and G2/M phase and decreases in cells in S phase”. In addition, the “caspase 3, 7, 9 and PARP” value in the assay with caspase 3, 7, 9 and PARP is given as “no changes in caspase activity were observed”. Besides, the 50% inhibitory concentration (IC50) in the assay with U87 cells came out at 700 nM. For the same molecule, the “p-ERK, higher concentrations alone” value in the assay on pERK, JNK, p38 MAPK (2.5 μM Δ^9-THC, 2.0 μM CBD, three days) is “small inhibition of p-ERK”. Besides, in the assay on pERK, JNK, p38 MAPK (THC 1.7 μM, CBD 0.4 μM, two days), the pERK entry was “no changes in pERK were observed”.

As for `CCCCC(C)(C)c1cc(O)c(C2CCC(C3CCCCC3)CC2)c(O)c1` (stereo not drawn) [Compound O-1663], on CB1 receptors, the “affinity for CB1 receptors” value is reported as “lower affinity for CB1 receptors in comparison to THC”. Also, in the assay on Id-2, the “up-regulation of Id-2 expression” value is “more potent than CBD at up-regulating Id-2 expression”.
